Measured values published in patent US5559209A, “Regulator regions of G proteins” (The General Hospital Corporation, priority 1993, dated 1996).
Where no end group is shown, it is not given here.

What was measured:
Gi2 = biological target: T1, Gi2 (Bos taurus, UniProt A7MBH9); experiment: GTPγS binding assay, peptide 14-induced Gi2 activation; assay type: biochemical, bovine; settings: 10 μM peptide variant, 10 nM Gi2, 30 μM peptide 14
T1 construct: trimeric Gi2 (i.e., Gi2 αβγ) purified from bovine brain to near homogeneity; from tissue; host or cells: bovine brain
Method: Materials and Methods The in vitro assays described below utilize the couplone portion of each of a number of G-coupled receptors, instead of an intact receptor molecule, as a means for activating the corresponding anticouplone or intact G-protein. Except as noted below, Gi2 used in this study was trimeric Gi2 (i.e., Gi2 αβγ) purified from bovine brain to near homogeneity (Katada et al., FEBS Lett. 213:353-358 (1987), stored in buffer A (20 mM hepes/NaOH (pH 7.4), 1 mM EDTA, and 0.7% CHAPS), and diluted≥10 fold for assays. The Gi2 used for the reconstitution experiment was trimeric Gi2 purified from bovine spleen to homogeneity and dissolved in buffer B (Morishita et al., 1989). Gi3 α (Morishita et al., Biochem. Biophys. Res. Commun. 172:249-255 (1990), was purified from bovine spleen and used in combination with 1.5-fold concentrated Gβγ (Katada et al., 1987). This preparation of Gi3 α was 10-20% contaminated by Gi1 α, but not by other G proteins. Trimeric Gs and Gβγ purified from bovine brain to near homogeneity (Katada et al., 1987) were also stored in buffer A.
GTPγS binding Assay--GTPγS binding to G proteins was assayed at 37° C. in 20 mM Hepes/NaOH buffer (pH 7.4) containing 130 μM MgCl2, 110 μM EDTA and 60 nM [^35 S]GTPγS, as described previously (Okamoto et al., 1990). GTPγS binding to polypeptides was negligible. The total amount of G protein was measured as maximal GTPγS binding at room temperature, as described (Okamoto et al., Cell 67:723-730, 1991a). [^35 S]GTPγS was purchased from DuPont-New England Nuclear. Binding of GTPγS to G proteins obeyed first-order kinetics according to the equation ln[(BT-B)/BT]=-kapp t, where B is the binding at time t and BT is the total binding observable at an infinite time. Thus, the apparent first-order rate constant for GTPγS binding (kapp), which is equal to the slope of the tangent to the GTPγS binding curve at time 0 and represents the actual GTPγS binding rate, was calculated from this equation.
In the experiment illustrated in FIG. 1A, 10 nM Gi2 was incubated with 30 μM peptide 14 (RVGLVRGEKARKGK; SEQ ID NO: 27), the couplone portion of the IGF-II receptor, in the presence of various concentrations of (.quadrature.) ACGi2 (DAVTDVIIKNNLKDC; SEQ ID NO: 3), (567 ) the control Gi2 α Glu297-Asp310 peptide (EAASYIQSKFEKLN; SEQ ID NO: 18), or (.diamond.) the control Gi2 α Lys346-Phe355 peptide (KNNLKDCGLF; SEQ ID NO: 19) for 5 min under the GTPγS binding assay conditions described above, and GTPγS binding to G proteins was measured. The effect of ACGi2 on Gi2 in the absence of peptide 14 is indicated by .box-solid.. Percent stimulation of GTPγS binding was calculated by subtracting the basal fractional binding and dividing by the stimulated fractional binding observed in the absence of ACGi2. The basal fractional binding (=0%) was 0.39 mol GTPγS binding/mol Gi /5 min (5 min^-1). The 100% increase represents the GTPγS binding of 0.85 (5 min^-1). Values in all figures represent the mean ±S.E. of three experiments.
To verify the notion that ACGi2 acts on Gi2 itself, and not on receptor sequences, two series of experiments were performed. First, the dose-response curve for peptide 14 action on Gi2 in the presence of various concentrations of ACGi2 was generated (FIG. 2A). Following incubation of 10 nM Gi2 with various concentrations of peptide 14 in the absence (.quadrature.) or presence of 10 μM (.diamond-solid.) or 30 μM (.box-solid.) ACGi2 for 5 min, GTPγS binding was assayed; fractional GTPγS binding to Gi2 is indicated in the figure.
The second series of experiments investigated the effect of ACGi2 on lower concentrations of Gi2 that had been activated by peptide 14 to the same extent (FIG. 2B). 1 nM Gi2 was incubated for 5 min with 3 μM peptide 14 in the presence of various concentrations of ACGi2, and GTPγS binding was measured. The fractional GTPγS binding at 0% and 100% in this experiment was 0.40 and 0.55 (5 min^-1), respectively. […]

[1] = test system: NRK (rat renal fibroblast) cells; experiment: TGFβ-induced fibronectin secretion, immunoblot; assay type: cell-based; settings: 50 pM TGFβ, 12 hours
Description: Inhibition of TGFβ-induced matrix formation. The secretion of matrix proteins (in particular, fibronectin) by kidney, lung and liver cells may lead to sclerosis of those organs. Transforming growth factor-β (TGFβ), which stimulates the secretion of fibronectin, may therefore contribute to such sclerosis. Since the TGFβ receptor is a Go2 -coupled receptor, the ability of ACGo2 to inhibit the TGFβ-induced stimulation of fibronectin secretion by NRK (rat renal fibroblast) cells (Ignotz and Massague, J. Biol. Chem. 261:4337-4345, 1986) was assayed.
NRK cells were cultured in RPMI 1640 supplemented with 5% FCS in a CO2 -incubator at 37° C. The medium was replaced every two days. Cells were regularly subcultured by trypsin-EDTA before reaching confluency. In the experiments described below, the cells were grown in monolayer to confluency in 6-well culture plates (Corning, N.Y.), then incubated for 12 hours with RPMI 1640 plus 0.5% FCS, and for a further 12 hours with RPMI 1640 plus 0.5% FCS in the presence or absence of 50 pM TGFβ (R & D System, Minneapolis, Minn.), to which was added 100 μM ACGi2, ACGs, ACGo2, or ACGq. The medium from each well was collected and frozen at -20° C. until assay. Fibronectin secreted into each sample of medium was assessed by immunoblot as follows: […]

[2] = test system: somatostatin receptor/K+ channel linkage in human growth hormone-secreting pituitary adenoma cells; experiment: Somatostatin-induced K+ currents, whole cell patch clamp; assay type: cell-based; settings: 100 nM somatostatin, absence of anticouplone peptides
Method: Inhibition Of somatostatin receptor function. It is known that somatostatin induces K^+ channel activation in a manner sensitive to pertussis toxin in human growth hormone-secreting tumors (Yamashita et al., Am. J. Physiol. 253:E28-E32, 1987). The effect of each of ACGi2, ACGi3, ACGs, ACGo1, and ACGo2 on somatostatin-induced K^+ currents in human pituitary cells was measured using the patch clamp technique, as described below.
Three human growth hormone-secreting pituitary adenomas were obtained at transsphenoidal surgery. The tissue was minced into small pieces (less than 1 mm in diameter) and was treated with 1000 units/ml dispase (Wako, Japan). These dissociated cells (≈10^5 cells/ml) were seeded onto 35-mm culture dishes. […]
A whole cell variation of the patch electrode voltage clamp technique was used to record membrane currents (Hamill et al., Pfluger Arch. 391:85-100, […]). […] The liquid junction potential between the extracellular solution and the internal solution was directly measured using a 3M KCl electrode as a reference. […]
The intracellular solution that filled the inside of the pipet portion of the apparatus contained one of the following anticouplone peptides at 100 μM: ACGi2, ACGi3, ACGs, ACGo1, or ACGo2. The exterior of the cell was bathed with the extracellular solution containing 100 nM somatostatin while the outward K^+ current was monitored. […]

T cell receptor = experiment: OKT3-induced polyphosphoinositide turnover in Jurkat cells; assay type: cell-based, human; settings: OKT3 1:100 for 5 min, no peptide
Method: Inhibition of T cell receptor function with ACGq. T cell receptor stimulation by monoclonal antibody OKT^3 in Jurkat cells, a line of human T cells, induces measurable polyphosphoinositide (PI) turnover. 10^7 cells were labelled with 5 μCi/ml [^3 H]myoinositol in inositol-free RPMI1640 for 12 hours. After incubating the cells with 500 μM ACGq, samples containing 5×10^5 cells were then exposed to the monoclonal antibody OKT3 (Ortho) at 1:100 dilution for 5 min. Perchloric acid was added to a final concentration of 10% to lyse the cells and terminate the reaction. Cell lysates were collected into tubes and brought to pH>8 by the addition of KOH. Following centrifugation of the lysates, the supernatants were passed over a DOWX anion exchange column (Muromachi Chemicals, Japan) to separate inositol polyphosphates (IPs) from other inositol metabolites, and the amount of [^3 H] label in the inositol trisphosphate (IP3) fraction assessed.

T1 sequence (A7MBH9 2-355 limits assumed): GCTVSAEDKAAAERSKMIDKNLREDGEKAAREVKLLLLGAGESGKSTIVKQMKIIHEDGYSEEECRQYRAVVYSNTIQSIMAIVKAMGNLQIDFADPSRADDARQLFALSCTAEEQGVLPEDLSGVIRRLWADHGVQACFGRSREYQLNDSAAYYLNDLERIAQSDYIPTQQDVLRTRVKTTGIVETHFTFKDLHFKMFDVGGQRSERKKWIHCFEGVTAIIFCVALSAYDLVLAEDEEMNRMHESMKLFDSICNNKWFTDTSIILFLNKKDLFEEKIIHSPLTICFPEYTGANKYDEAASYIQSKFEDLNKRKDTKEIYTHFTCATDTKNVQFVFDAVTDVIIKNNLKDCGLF
T1 sequence (P62871 2-340 partner limits assumed): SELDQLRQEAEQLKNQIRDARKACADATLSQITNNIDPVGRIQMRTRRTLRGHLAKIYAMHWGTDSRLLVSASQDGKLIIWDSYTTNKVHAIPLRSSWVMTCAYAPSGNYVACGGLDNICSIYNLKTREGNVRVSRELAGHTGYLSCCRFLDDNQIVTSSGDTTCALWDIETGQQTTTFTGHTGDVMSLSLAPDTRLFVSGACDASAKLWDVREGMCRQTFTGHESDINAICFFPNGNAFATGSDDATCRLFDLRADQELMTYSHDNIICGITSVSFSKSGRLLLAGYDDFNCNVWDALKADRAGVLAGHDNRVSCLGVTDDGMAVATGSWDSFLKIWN
T1 sequence (P63212 2-68 partner limits assumed): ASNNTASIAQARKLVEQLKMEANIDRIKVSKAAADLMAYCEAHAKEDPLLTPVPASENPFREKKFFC

Compound	inhibition at 10 µM (Gi2) [%]	further results
TGFβ: Transforming growth factor-β, which stimulates the secretion of fibronectin		fibronectin secreted by cells exposed to TGFβ [1]: significant amount of fibronectin is secreted
AAVTDVIIKNNLKDC [A1 variant, AAVTDVIIKNNLKDC]	≥ 30	
C[C@H](N)C(=O)NCC(=O)N[C@H]1CSSC[C@@H](C(=O)O)NC(=O)[C@H](CO)NC(=O)[C@H]([C@@H](C)O)NC(=O)[C@H](Cc2ccccc2)NC(=O)[C@H]([C@@H](C)O)NC(=O)[C@H](CCCCN)NC(=O)[C@H](Cc2c[nH]c3ccccc23)NC(=O)[C@H](Cc2ccccc2)NC(=O)[C@H](Cc2ccccc2)NC(=O)[C@H](CC(N)=O)NC(=O)[C@H](CCCCN)NC1=O [somatostatin]		K+ current induced over baseline [2]: approximately 20 pA
OKT3: monoclonal antibody OKT3 (Ortho) stimulating the T cell receptor		[3H] incorporation into IP relative to control cells not exposed to OKT3 (T cell receptor): 157%

Continued, in another order:

inhibition at 10 µM (Gi2) [%]	Compound	further results
≥ 30	DAVTDVIIKANLKDC [A3 variant, DAVTDVIIKANLKDC]	
≥ 80	DAVTAVIIKNNLKDC [A2 variant, DAVTAVIIKNNLKDC]	
≥ 80	DAVTDVIIKNNLKAC [A5 variant, DAVTDVIIKNNLKAC]	
≥ 30	DAVTDVIIKNNLKD [del C variant, DAVTDVIIKNNLKD]	
≥ 30	DAVTDVIIK [p9 variant, DAVTDVIIK]	
